Source: patent publication US20230054976A1, “METHODS FOR INHIBITION OF ALPHA-SYNUCLEIN mRNA USING SMALL MOLECULES” (The Scripps Research Institute, priority 2019, published 2023)

Legend:
Assay type in all cases: cell-based, human
[1] = test system: ferritin 5′ UTR; test: Luciferase reporter assay, ferritin 5′ UTR, SH-SY5Y cells; details: 1 μM
[2] = test system: SH-SY5Y cells; test: Cell viability (MTS) assay; details: 0.25, 0.5 and 1 μM, 48 h
Protocol: To assess if Synucleozid has a cytotoxic effect, SH-SY5Y cells were treated with 0.25 μM to 1 μM for 48 h, and cell viability and cytotoxicity were measured using CellTiter 96 Aqueous One Solution Cell Proliferation Assay (MTS) according to the manufacturers' instructions.
To assess if Synucleozid has a cytotoxic effect, SH-SY5Y cells were treated with 0.25, 0.5 and 1 μM for 48 h, and cell viability and cytotoxicity were measured using CellTiter 96 Aqueous One Solution Cell Proliferation Assay (MTS) and LDH release assay, respectively, according to the manufacturers' instructions.

[3] = test system: SH-SY5Y cells proteome; test: Proteomics profiling by mass spectrometry; details: 48 h
Protocol: Treatment with Synucleozid and siRNA for proteomics profiling using Mass Spectrometry. SH-SY5Y cells were cultured in 100 mm dishes to 60% confluency and treated with 1.5 μM of Synucleozid or DMSO, or transfected with 0.1 μM α-synuclein siRNA (ON-TARGETplus Human SNCA siRNA-SMARTpool) or scramble siRNA (ON-TARGETplus Non-targeting siRNA) using Lipofectamine RNAiMAX (Invitrogen) according to the manufacturer's instructions for 48 h. Cells were gently washed twice with ice-cold PBS, detached and lysed in PBS via sonication. […] Same samples were then denatured in 6 M urea in 50 mM NH4HCO3, reduced with 10 mM tris(2-carboxyethyl)phosphine hydrochloride (TCEP) for 30 min, and alkylated with 25 mM iodoacetamide for 30 min, in the dark at room temperature. Samples were diluted to 2 M urea with 50 mM NH4HCO3, and digested with trypsin (Thermo Scientific, 1.5 μL of 0.5 μg/μL) in the presence of 1 mM CaCl2 (100× stock in water). The digestion was performed for 12 h at 37° C. Samples were acidified to a final concentration of 5% acetic acid, desalted over a self-packed C18 spin column, and dried. Samples were then analyzed by LC-MS/MS (see below). The MS data were processed with MaxQuant.
LC-MS/MS analysis. Peptides from samples described above were resuspended in water with 0.1% formic acid and analyzed using EASY-nLC 1200 nano-UHPLC coupled to Q Exactive HF-X Quadrupole-Orbitrap mass spectrometer (Thermo Scientific). The chromatography column consists 30 cm long, 75 μm i.d. microcapillary capped by a 5 μm tip and packed with ReproSil-Pur 120 C18-AQ 2.4 μm beads (Dr. Maisch GmbH). LC solvents had two buffers which were Buffer A (0.1% formic acid in H2O) and Buffer B (0.1% formic acid in 90% MeCN:10% H2O). Peptides from samples described above were eluted into the mass spectrometer at a flow rate of 300 nL/min over a 240 min linear gradient (5-35% Buffer B) at 65 C. Data-dependent mode (top-20, NCE 28, R=7500) was used to acquire data after full MS scan (R=60000, m/z 400-1300). Dynamic exclusion was 10 s. Peptide match was set to prefer. Isotope exclusion was enabled.
MaxQuant analysis. MaxQuant (11) (V1.6.1.0) was used to analyze the mass spectrometer data. Data was searched against the human proteome (Uniprot) and a list of contaminants (included in MaxQuant). The first and main peptide search tolerance were set to 20 ppm and 10 ppm respectively. Fragment mass tolerance was set to 0.02 Da. The false discovery rate (FDR) was 1% for proteins, peptides, and sites identification. The minimum peptide length was set to 6 amino acids (AA). Peptide requantification, label-free quantification (MaxLFQ), “match between runs” were all enabled. The minimal number of peptides for every protein was set to 2. A variable modification was set to be methionine oxidation, and a fixed modification was set to be carbamidomethylation of cysteines in searches.

[4] = test system: SH-SY5Y cells transcriptome; test: RNA-Seq transcriptome-wide differential expression; details: 48 h; Synucleozid 1.5 μM vs vehicle; siRNA 0.1 μM vs scrambled control
Protocol: RNA-Seq. SH-SY5Y cells were treated or transfected as described above for 48 h with Synucleozid (1.5 μM) and siRNA (0.1 μM). Total RNA was extracted using a miRNeasy Mini Kit (Qiagen, as described above) with on-column DNase I treatment. Qubit 2.0 Fluorometer (Invitrogen) was used for total RNA quantification. Quality of total RNA was assessed by using an Agilent Technologies 2100 Bioanalyzer RNA nano chip. Samples which have RNA integrity number >8.0 were used in future experiments. Probes provided by the NEBNext rRNA depletion module (catalog no.: E6310L, New England Biosciences) were used to deplete rRNA on approximate 500 ng of total RNA according to the manufacturer's recommendations. Library preparation was done with NEBNext Ultra 11 Directional RNA kit (catalog no.: E7760, New England Biosciences) according to the manufacturer's instructions. RNA samples were heated to 94° C. and simultaneously chemically fragmented in a divalent cation buffer for 15 min. Conversion of fragmented RNA to the first strand of cDNA was done with random hexamer priming and reverse transcription. To synthesize second strand, RNA template was removed and dUTP in place of dTTP was incorporated. […] Every sample with a base quality score >Q30 (<1 error per 1000 bp) generated around 20-25 million reads. Transcript abundance from these RNA samples were quantified using Kallisto (12). […]

[5] = Synucleozid 1.5 μM vs vehicle, siRNA 0.1 μM vs scrambled control siRNA

## N=C(N)c1ccc(Nc2ccc(-c3cc4ccc(C(=N)N)cc4[nH]3)cc2)cc1 [Synucleozid A]
[1]
  inhibition of translation, luciferase fused to ferritin 5′ UTR: ~10%
[2]
  cell viability (MTS): no toxicity
[2]; listed as Synucleozid
  cell viability (MTS): no effect
[3]; 1.5 μM
  effect on proteins encoded by mRNAs with IREs (ACO2, NDUFS1, CDC42BPB, FTH1): Only FTH1 was affected
[3]; [5]
  number of proteins downregulated: 143
  number of proteins with increased expression: 140
  proteins affected, percentage of detected: 8%
  proteins downregulated, % of all proteins: 4.3%
  proteins with increased expression, % of all proteins: 4.2%
[3]; Synucleozid 1.5 μM vs vehicle, siRNA 0.1 μM vs scrambled control siRNA, adjusted p-value <0.01
  number of proteins affected among 3300 detected: 283
[4]
  genes unchanged / genes detected: 19979/20034
  genes unchanged, percentage: 99.7%
